Measurements from patent US4535081A, “Antiallergic and antiulcer 1-oxo-1H-thiazolo[3,2-a]pyrimidine-2-carboxamides and intermediates therefor” (Pfizer Inc., priority 1983, dated 1985).
“Also recorded” adds a separate entry of the source. Where a name gives a salt, the structure may show the parent alone. Read-outs that look alike come from different tables or passages of the source.

Experiments:
[1] = test system: IgG (hyperimmune antiserum) PCA reaction; assay: Oral activity in PCA test, IgG; assay type: in vivo; conditions: Rattus norvegicus
Description: (§1) The antiallergy property of the compounds of this invention is evaluated by the passive cutaneous anaphylaxis (PCA) test (Ovary, J. Immun., 81, 355, 1958). In the PCA test, normal animals are injected intradermally (i.d.) with antibodies contained in serum obtained from actively sensitized animals. The animals are then challenged intravenously with antigen mixed with a dye such as Evans' Blue. The increased capillary permeability caused by the antigen-antibody reaction causes the dye to leak from the site of the antibody injection. The test animals are then asphyxiated and the intensity of the reaction determined by measuring the diameter and intensity of the blue coloration on the inner surface of the animals' skin.
(§2) The ability of agents to interfere with PCA reactions is measured in male Charles River Wistar rats, 170-210 g. Reaginic antiserum, rich in IgE antibodies, is prepared according to Petillo et al., Int. Arch. Allergy, 44, 309 (1973). Hyperimmune antiserum rich in IgG antibodies to hen egg albumin is prepared according to Orange et al., J. Exptl. Med., 127, 767 (1968). Forty-eight hours prior to antigen challenge, the reaginic antiserum is injected intradermally (i.d.) into the shaved skin of a normal rat's back; 5 hours before challenge the hyperimmune antisera is similarly injected. At a third site 60 mcg. histamine dihydrochloride and 0.5 mcg. serotonin creatinine sulfate are injected i.d. just prior to antigen challenge as a check for antihistaminic, antiserotonin and unspecific types of blockage; the compounds of the instant invention or saline are then administered i.v. and immediately followed by the challenge of 5 mg. egg albumen and 2.5 mg. Evans' Blue dye in saline. In the case of oral administration Evans' Blue dye and egg albumin are given 5 minutes after administration of the drug. Thirty minutes later the animals are asphyxiated using chloroform and the skin of the back removed and reversed for observation. A score is assigned each injection site equal to the product of the diameter of the site in mm. and a grade of 0.1, 0.5, 1, 2, 3 or 4 proportional to intensity of dye coloration. The scores for a given injection site are summed for each group of five animals and compared to the saline treated controls. The difference is expressed as percent blockage due to the compound employed.
Compounds representative of those of the present invention are tested for antiallergy activity by the above-described procedure and the resulting activities are reported as the degree (%) of protection.

[2] = test system: IgE (reaginic antiserum) PCA reaction; assay: Oral activity in PCA test, IgE; assay type: in vivo, rat; conditions: Rattus norvegicus, IgE, oral
Description: as §1
The PCA test is a measure of the anti-allergic (especially anti-asthmatic) activity of a compound. Compounds which inhibit a positive PCA test induced by the rat immunochemical counterpart of human immunoglobulin E (IgE), or reagin, are considered to have anti-allergic activity (C. Mota, Ann. N.Y. Acad. Sci., 103, 264 1963). (Reagin is primarily immunoglobulin E [IgE] and is the principal immunoglobulin responsible for allergic asthma, anaphylaxis, hay fever, food sensitivities and certain manifestations of drug sensitivities, although recent evidence ascribes to the IgG class of antibodies a significant role in the mediation of allergic diseases). Such compounds when administered to a sensitized subject, human or animal, prior to the time when the subject comes into contact with antigens or substances to which it is allergic, will prevent the allergic reaction which would otherwise occur. They, therefore, provide a method for the prophylactic treatment of allergy or anaphylactic reactions of a reagin mediated nature.
To put it another way, such compounds block the release of mediators resulting from the antigen-antibody (allergic) reaction as illustrated in the PCA test using rat homocytotropic antibody--a known correlate of human reaginic antibody. Inhibition of reaginic antigen-antibody reactions in rats, the test animal of the PCA test, is regarded as representative of inhibition of human reaginic antigen-antibody reactions which occur during allergic episodes.
as §2, with “employed. […]” for “employed.”

[3] = test system: ethanol-induced ulcer; assay: Ethanol-induced rat ulcer assay; assay type: in vivo; conditions: oral, 5 mg./kg.; for % Inhibition in the Ethanol-Induced Rat Ulcer Assay, amides: Table III; for % Inhibition in the Ethanol-Induced Rat Ulcer Assay, acids: Table IV
Description: Alternatively, the effectiveness of the products of this invention as antiulcer agents is determined in an ethanol-induced rat ulcer assay. In this test, overnight fasted male rats are given drug (5 mg./kg.) or water orally fifteen minutes prior to an orally administered dose of absolute ethanol (1.0 ml.). One hour after the ethanol challenge the animals (8/group) are killed and the stomachs examined for the presence of lesions. All drugs were dissolved in dilute NaOH. After sacrifice the abdomen is opened and a locking hemostat placed at the pylorus. 6 ml. of a 4% solution of formaldehyde was injected into the stomach with a gastric feeding tube and a second locking hemostat was used to seal the esophagus. The stomach was removed, opened along the greater curvature and examined for ulceration.
The scoring system used to quantitate the ethanol-induced lesions is given below.
For each group of animals an ulcer index is calculated as follows:
Ulceration Index=(the sum of the scores of the group)×(the sum of the number of ulcers in the group)×(the fraction of the group having any incidence of ulceration).
The percentage inhibition of ulcers is calculated as follows:
% Inhibition=100×[(ulcer index controls)-(ulcer index drug-treated)].div.(ulcer index controls).

[4] = Plasma levels after repeated daily dosing; assay type: in vivo; conditions: after the eighth daily dose of III
Description: (§3) This is supported by the observations of plasma concentrations of 3 to 7 μg/ml one hour after oral administration of III, 50 to 300 mg/kg.

[5] = Oral absorption and plasma concentrations, rats; assay type: in vivo, rat; conditions: after oral administration of III
Description: as §3

[6] = Oral absorption and plasma concentrations, dogs; assay type: in vivo, dog; conditions: after oral administration of III
Description: as §3

[7] = test system: allergic reactions; conditions: cited from earlier work
[8] = test system: bronchi; conditions: Cox et al., Adv. in Drug Res., 5, 115 (1970); cited from earlier work
[9] = Water solubility and hygroscopicity; assay type: physicochemical
[10] = Table I amides, read-out: Oral Activity (% of Protection) in the PCA Test, IgG
[11] = Table I amides, read-out: Oral Activity (% of Protection) in the PCA Test, IgE
[12] = read-out: Oral Activity (% of Protection) in the PCA Test, IgG
[13] = read-out: Oral Activity (% of Protection) in the PCA Test, IgE
[14] = Table II acids, read-out: Oral Activity (% of Protection) of Acids in the PCA Test, IgG
[15] = Table II acids, read-out: Oral Activity (% of Protection) of Acids in the PCA Test, IgE

O=C(Nc1nnn[nH]1)c1cnc2sc3c(n2c1=O)CCCCCC3 [Formula I: (CH2)6, N-(5-Tetrazolyl)-1-oxo-1H-cyclooctenothiazolo[3,2-a]pyrimidine-2-carboxamide]
inhibition in vivo at 30 mg/kg [1, 10]: 57% | inhibition in vivo at 30 mg/kg [2, 11]: 94% | % Inhibition in the Ethanol-Induced Rat Ulcer Assay, amides [3]: 45%

CCc1sc2ncc(C(=O)Nc3nnn[nH]3)c(=O)n2c1CC [Formula I: R1=C2H5, R2=C2H5, N-(5-Tetrazolyl)-1-oxo-1H-6,7-diethylthiazolo[3,2-a]pyrimidine-2-carboxamid]
inhibition in vivo at 30 mg/kg [1, 10]: 49% | inhibition in vivo at 30 mg/kg [2, 11]: 62% | % Inhibition in the Ethanol-Induced Rat Ulcer Assay, amides [3]: 10%

CCc1cn2c(=O)c(C(=O)Nc3nnn[nH]3)cnc2s1 [Formula I: R1=C2H5, R2=H, N-(5-Tetrazolyl)-1-oxo-1H-6-ethylthiazolo[3,2-a]pyrimidine-2-carboxamide]
inhibition in vivo at 30 mg/kg [1, 10]: 58% | inhibition in vivo at 30 mg/kg [2, 11]: 85% | % Inhibition in the Ethanol-Induced Rat Ulcer Assay, amides [3]: 86%

Cc1sc2ncc(C(=O)Nc3nnn[nH]3)c(=O)n2c1C [Formula I: R1=CH3, R2=CH3, N-(5-Tetrazolyl)-1-oxo-1H-6,7-dimethylthiazolo[3,2-a]pyrimidine-2-carboxamide]
inhibition in vivo at 3 mg/kg [1, 12]: 51% | inhibition in vivo at 3 mg/kg [2, 13]: 55% | % Inhibition in the Ethanol-Induced Rat Ulcer Assay, amides [3]: 96%

Cc1cn2c(=O)c(C(=O)Nc3nnn[nH]3)cnc2s1 [Formula I: R1=CH3, R2=H, N-(5-Tetrazolyl)-1-oxo-1H-6-methylthiazolo[3,2-a]pyrimidine-2-carboxamide]
inhibition in vivo at 30 mg/kg [1, 10]: 55% | inhibition in vivo at 30 mg/kg [2, 11]: 78% | % Inhibition in the Ethanol-Induced Rat Ulcer Assay, amides [3]: 72%

Cc1csc2ncc(C(=O)Nc3nnn[nH]3)c(=O)n12 [Formula I: R1=H, R2=CH3, N-(5-Tetrazolyl)-1-oxo-1H-7-methylthiazolo[3,2-a]pyrimidine-2-carboxamide]
inhibition in vivo at 3 mg/kg [1, 12]: 50% | inhibition in vivo at 3 mg/kg [2, 13]: 55% | % Inhibition in the Ethanol-Induced Rat Ulcer Assay, amides [3]: 59%

O=C(O)c1cnc2sc3c(n2c1=O)CCCC3 [Formula II: (CH2)4, 1-Oxo-1H-cyclohexenothiazolo[3,2-a]pyrimidine-2-carboxylic Acid]
inhibition in vivo at 10 mg/kg ([1]; 10 mg./kg., Table II acids, read-out: Oral Activity (% of Protection) of Acids in the PCA Test, IgG): 39% | inhibition in vivo at 10 mg/kg ([2]; 10 mg./kg., Table II acids, read-out: Oral Activity (% of Protection) of Acids in the PCA Test, IgE): 55% | levels after the eighth daily dose relative to initial dose [4]: 2 to 4 times | % Inhibition in the Ethanol-Induced Rat Ulcer Assay, acids [3]: 21% | plasma levels of carboxylic acid metabolite [5]: comparable to those of III | plasma levels of carboxylic acid metabolite [6]: comparable to those of III

CCc1sc2ncc(C(=O)O)c(=O)n2c1CC [Formula II: R1=C2H5, R2=C2H5, 1-Oxo-1H-6,7-diethylthiazolo[3,2-a]pyrimidine-2-carboxylic Acid]
inhibition in vivo at 30 mg/kg [1, 14]: 32% | inhibition in vivo at 30 mg/kg [2, 15]: 41% | % Inhibition in the Ethanol-Induced Rat Ulcer Assay, acids [3]: 48%

CCc1cn2c(=O)c(C(=O)O)cnc2s1 [Formula II: R1=C2H5, R2=H, 1-Oxo-1H-6-ethylthiazolo[3,2-a]pyrimidine-2-carboxylic Acid]
inhibition in vivo at 30 mg/kg [1, 14]: 38% | inhibition in vivo at 30 mg/kg [2, 15]: 45% | % Inhibition in the Ethanol-Induced Rat Ulcer Assay, acids [3]: 48%

Cc1sc2ncc(C(=O)O)c(=O)n2c1C [Formula II: R1=CH3, R2=CH3, 1-Oxo-1H-6,7-dimethylthiazolo[3,2-a]pyrimidine-2-carboxylic Acid]
inhibition in vivo at 30 mg/kg [1, 14]: 0% | inhibition in vivo at 30 mg/kg [2, 15]: 0% | % Inhibition in the Ethanol-Induced Rat Ulcer Assay, acids [3]: 11%

Cc1cn2c(=O)c(C(=O)O)cnc2s1 [Formula II: R1=CH3, R2=H, 1-Oxo-1H-6-methylthiazolo[3,2-a]pyrimidine-2-carboxylic Acid]
inhibition in vivo at 30 mg/kg [1, 14]: 14% | inhibition in vivo at 30 mg/kg [2, 15]: 12% | % Inhibition in the Ethanol-Induced Rat Ulcer Assay, acids [3]: 0%

Cc1csc2ncc(C(=O)O)c(=O)n12 [Formula II: R1=H, R2=CH3, 1-Oxo-1H-7-methylthiazolo[3,2-a]pyrimidine-2-carboxylic acid]
inhibition in vivo at 30 mg/kg [1, 14]: 19% | inhibition in vivo at 30 mg/kg [2, 15]: 18% | % Inhibition in the Ethanol-Induced Rat Ulcer Assay, acids [3]: 27%

O=C(O)c1cc(=O)c2c(OCC(O)COc3cccc4oc(C(=O)O)cc(=O)c34)cccc2o1 [Intal, 1,3-bis(2-carboxycromon-5-yloxy)-2-hydroxypropane]
activity by the oral route [7]: lacks efficacy by the oral route; also recorded: not active by the oral route | activity by the oral route ([7]; listed as disodium cromoglycate): lack of oral efficacy | bronchodilator action [8]: not a bronchodilator

O=C(Nc1nnn[nH]1)c1cnc2sc3c(n2c1=O)CCCC3 [sodium salt (trihydrate), sodium N-(5-tetrazolyl)-1-oxo-1H-cyclohexenothiazolo[3,2-a]pyrimidine-2-carboxamide trihydrate]
hygroscopicity [9]: non-hygroscopic | water solubility [9]: good water solubility
